{"source": "patent US8470886B2", "about": "“Topical ibuprofen formulations” (NUVO Research Inc., priority 2009, dated 2013)", "key": {"[1]": {"settings": "cited from earlier work"}, "[2]": {"test": "Skin permeation of ibuprofen through porcine skin, Franz diffusion cells (finite dosing)", "assay_type": "in vitro ADME", "settings": "bar graphs FIG. 1-13", "procedure": "“Enhancement ratio” (“ER”) as used herein is the ratio of a test result (e.g., ug/cm^2 accumulated dose of product) from a formulation comprising ibuprofen to the corresponding test result from a control composition comprising ibuprofen at the same concentration in the formulation.\n“Ratio”, as it pertains to comparative flux values described herein, are calculated based on the cumulative amount of active (e.g. ibuprofen) delivered through the skin over a period of 4-60 hrs, preferably 24 hrs.\nThe permeation of ibuprofen through porcine skin from each of the present formulations was measured using Franz diffusion cells (“FDC”s). Porcine skin pieces are obtained from Lampire Biological Laboratories, Inc., Pipersville, Pa. Porcine skins were collected immediately following animal sacrifice, and the hairs were trimmed with clippers. Larger pieces of excess fat were removed with a filet knife. The skin was then trimmed to a set thickness of some 2 mm, cut into individual pieces, wrapped in aluminum foil, frozen, shipped, and stored at −78° C.\nPrior to use, the skin pieces were allowed to thaw, in air, to room temperature. […]\nSamples were drawn from the receptor wells at various times, as provided in the examples that follow. […] The concentrations of ibuprofen in the samples were measured using HPLC analysis using a C18 column and acetonitrile and water as the mobile phase. […]"}, "pH of the formulation": {"test": "pH of the formulation", "assay_type": "physicochemical", "settings": "Table 20; single ingredient in water at its Ib949 wt %"}}, "note": "Where a name gives a salt, the structure may show the parent alone.", "data": [{"smiles": "CC(C)Cc1ccc(C(C)C(=O)O)cc1", "note": "(racemic) [Ibuprofen, 2-(4-isobutylphenyl)propanoic acid]", "values": [{"measurement": "Solubility in polar organic solvents", "setting": "[1]; ethanol and acetone", "value": "readily soluble"}, {"measurement": "Solubility in water", "setting": "[1]; water", "value": "< 0.1", "unit": "mg/mL"}]}, {"smiles": "CC(C)Cc1ccc([C@H](C)C(=O)O)cc1", "note": "[(S) form, (S+)-ibuprofen]", "values": [{"measurement": "Flux / permeation of ibuprofen, result in words", "setting": "[2]", "value": "no significant difference in flux"}]}, {"smiles": "CCO", "note": "[Ethanol]", "values": [{"measurement": "pH-water and ingredients", "setting": "pH of the formulation", "value": 7.31}]}, {"smiles": "CC(O)C(=O)O", "note": "(centres unmarked) [Lactic Acid]", "values": [{"measurement": "pH-water and ingredients", "setting": "pH of the formulation", "value": 2.4}]}, {"smiles": "COC(=O)c1ccc(O)cc1", "note": "[MP]", "values": [{"measurement": "pH-water and ingredients", "setting": "pH of the formulation", "value": 5.72}]}, {"smiles": "CCCCCCCCCCCCOS(=O)(=O)[O-].[Na+]", "note": "[Na Lauryl Sulfate]", "values": [{"measurement": "pH-water and ingredients", "setting": "pH of the formulation", "value": 7.97}]}, {"smiles": "CC(O)CO", "note": "(centres unmarked) [PG]", "values": [{"measurement": "pH-water and ingredients", "setting": "pH of the formulation", "value": 6.97}]}, {"smiles": "CCCOC(=O)c1ccc(O)cc1", "note": "[PP]", "values": [{"measurement": "pH-water and ingredients", "setting": "pH of the formulation", "value": 6.13}]}, {"smiles": "CCOCCOCCO", "note": "[Transcutol]", "values": [{"measurement": "pH-water and ingredients", "setting": "pH of the formulation", "value": 4.32}]}, {"smiles": "CCOC(=O)CC(O)(CC(=O)OCC)C(=O)OCC", "note": "[Triethyl Citrate]", "values": [{"measurement": "pH-water and ingredients", "setting": "pH of the formulation", "value": 3.72}]}]}
